Target: T1, Ba/F3 cell EGFR Exon20 ins NPH (Homo sapiens, UniProt P00533, INS773NPH)
T1 construct: expressed in transfected cells; host or cells: Ba/F3
Experiment: Ba/F3 cell proliferation suppression, EGFR Exon20 ins NPH
Format: cell-based
Details: GI50 class; Ba/F3 cell line with NPH inserted at Exon20 of EGFR; 72 hours
Procedure, shortened: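 Growth suppression determined as GI50 following 72 h exposure across 12 concentrations up to 50 um, with viability by luminescent ATP assay (CellTiter-Glo).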

SMILES	Ba/F3 (NPH) Activity
C=CC(=O)Nc1cc(Nc2cc(N3OCC[C@H]3Cc3ccccc3)ncn2)c(OC)cc1N1CCN(CCN(C)C)CC1 [compound 976, N-(5-((6-((R)-3-benzylisoxazolidine-2-yl)pyrimidine-4-yl)amino)-2-(4-(2-(dimethylamino)ethyl)piperazine-1-yl)-4-methoxyphenyl) acrylamide]	C (500 nM ≤ GI50 < 5000 nM)
C=CC(=O)Nc1cc(Nc2cc(N3OCC[C@@H]3Cc3cccc(F)c3Cl)ncn2)c(OC)cc1N1CCC(N2CCN(C3CC3)[C@@H](C)C2)CC1 [compound 1037, N-(5-((6-((S)-3-(2-chloro-3-fluorobenzyl)isoxazolidine-2-yl)pyrimidine-4-yl)amino)-2-(4-((S)-4-cyclopropyl-3-methylpiperazine-1-yl)piperidine-1-yl)-4-methoxyphenyl) acrylamide]	A (GI50 < 50 nM)
C=CC(=O)Nc1cc(Nc2cc(N3OCC[C@@H]3c3cccc4ccccc34)ncn2)c(OC)cc1N1CCC(N2C[C@@H]3C[C@H]2CO3)CC1 [compound 489, N-(2-(4-((1S,4S)-2-oxa-5-azabicyclo[2.2.1]heptane-5-yl)piperidine-1-yl)-4-methoxy-5-((6-((R)-3-(naphthalene-1-yl)isoxazolidine-2-yl)pyrimidine-4-yl)amino)phenyl)acrylamide]	A (GI50 < 50 nM)
C=CC(=O)Nc1cc(Nc2cc(N3OCC[C@@H]3c3ccc(F)c(Cl)c3F)ncn2)c(OC)cc1N1C[C@H](C)O[C@@H](C)C1 [compound 658, N-(5-((6-((R)-3-(3-chloro-2,4-difluorophenyl)isoxazolidine-2-yl)pyrimidine-4-yl)amino)-2-((2S,6S)-2,6-dimethylmorpholino)-4-methoxyphenyl) acrylamide]	B (50 nM ≤ GI50 < 500 nM)
C=CC(=O)Nc1cc(Nc2cc(N3OCC[C@@H]3c3ccc(F)c(Cl)c3F)ncn2)c(OC)cc1N1CCC(N2CCOCC2)CC1 [compound 606, N-(5-((6-((R)-3-(3-chloro-2,4-difluorophenyl)isoxazolidine-2-yl)pyrimidine-4-yl)amino)-4-methoxy-2-(4-morpholinopiperidine-1-yl)phenyl)acrylamide]	A (GI50 < 50 nM)
C=CC(=O)Nc1cc(Nc2cc(N3OCC[C@@H]3c3ccc(Cl)cc3)ncn2)c(OC)cc1N1CCC(N(C)C)CC1 [compound 805, N-(5-((6-((R)-3-(4-chlorophenyl)isoxazolidine-2-yl)pyrimidine-4-yl)amino)-2-(4-(dimethylamino)piperidine-1-yl)-4-methoxyphenyl) acrylamide]	A (GI50 < 50 nM)
C=CC(=O)Nc1cc(Nc2cc(N3OCC[C@@H]3c3ccc(F)c(F)c3)ncn2)c(OC)cc1N1CCN(C)CC1 [compound 458, N-(5-((6-((R)-3-(3,4-difluorophenyl)isoxazolidine-2-yl)pyrimidine-4-yl)amino)-4-methoxy-2-(4-methylpiperazine-1-yl)phenyl)acrylamide]	A (GI50 < 50 nM)
C=CC(=O)Nc1cc(Nc2cc(N3OCC[C@@H]3c3cc(F)cc(F)c3)ncn2)c(OC)cc1N1C[C@@H]2C[C@H]1CO2 [compound 437, N-(2-((1S,4S)-2-oxa-5-azabicyclo [2.2.1]heptane-5-yl)-5-((6-((R)-3-(3,5-difluorophenyl)isoxazolidine-2-yl)pyrimidine-4-yl)amino)-4-methoxyphenyl) acrylamide]	B (50 nM ≤ GI50 < 500 nM)
C=CC(=O)Nc1cc(Nc2cc(N3OCC[C@@H]3c3ccc(F)cc3F)ncn2)c(OC)cc1N1CCC(N2CCN(C3CC3)CC2)CC1 [Example 139, N-(2-(4-(4-cyclopropylpiperazine-1-yl)piperidine-1-yl)-5-((6-((R)-3-(2,4-difluorophenyl)isoxazolidine-2-yl)pyrimidine-4-yl)amino)-4-methoxyphenyl) acrylamide]	A (GI50 < 50 nM)
C=CC(=O)Nc1cc(Nc2cc(N3OCC[C@@H]3Cc3ccccc3)ncn2)c(OC)cc1N1C[C@@H]2C[C@H]1CN2CC [compound 950, N-(5-((6-((S)-3-benzylisoxazolidine-2-yl)pyrimidine-4-yl)amino)-2-((1S,4S)-5-ethyl-2,5-diazabicyclo [2.2.1]heptane-2-yl)-4-methoxyphenyl) acrylamide]	A (GI50 < 50 nM)
C=CC(=O)Nc1cc(Nc2cc(N3OCC[C@@H]3c3cc(F)ccc3F)ncn2)c(OC)cc1N1CCN(C2CC2)C[C@@H]1C [compound 879, N-(2-((S)-4-cyclopropyl-2-methylpiperazine-1-yl)-5-((6-((R)-3-(2,5-difluorophenyl)isoxazolidine-2-yl)pyrimidine-4-yl)amino)-4-methoxyphenyl) acrylamide]	A (GI50 < 50 nM)
C=CC(=O)Nc1cc(Nc2cc(N3OCC[C@@H]3c3cccc4ccccc34)ncn2)c(OC)cc1N1CCC(N2CCO[C@H](C)C2)CC1 [compound 536, N-(4-methoxy-2-(4-((R)-2-methylmorpholino)piperidine-1-yl)-5-((6-((R)-3-(naphthalene-1-yl)isoxazolidine-2-yl)pyrimidine-4-yl)amino)phenyl) acrylamide]	A (GI50 < 50 nM)
C=CC(=O)Nc1cc(Nc2cc(N3OCC[C@@H]3c3cccc(Cl)c3)ncn2)c(OC)cc1N1C[C@@H]2C[C@H]1CO2 [compound 466, N-(2-((1S,4S)-2-oxa-5-azabicyclo[2.2.1]heptane-5-yl)-5-((6-((R)-3-(3-chlorophenyl)isoxazolidine-2-yl)pyrimidine-4-yl)amino)-4-methoxyphenyl) acrylamide]	B (50 nM ≤ GI50 < 500 nM)
C=CC(=O)Nc1cc(Nc2cc(N3OCC[C@@H]3c3ccc(F)cc3F)ncn2)c(OC)cc1N1CCC(N2CC[C@@H](N(C)C)C2)CC1 [compound 429, N-(5-((6-((R)-3-(2,4-difluorophenyl)isoxazolidine-2-yl)pyrimidine-4-yl)amino)-2-(4-((R)-3-(dimethylamino)pyrolidine-1-yl)piperidine-1-yl)-4-methoxyphenyl) acrylamide]	A (GI50 < 50 nM)
C=CC(=O)Nc1cc(Nc2cc(N3OCC[C@@H]3c3ccc(C)nc3)ncn2)c(OC)cc1N1CCN(C2COC2)CC1 [Example 218, N-(4-methoxy-5-((6-((R)-3-(6-methylpyridine-3-yl)isoxazolidine-2-yl)pyrimidine-4-yl)amino)-2-(4-(oxetane-3-yl)piperazine-1-yl)phenyl)acrylamide]	B (50 nM ≤ GI50 < 500 nM)
C=CC(=O)Nc1cc(Nc2cc(N3OCC[C@@H]3c3cccc(F)c3F)ncn2)c(OC)cc1N1CCO[C@@H](C)C1 [compound 888, N-(5-((6-((R)-3-(2,3-difluorophenyl)isoxazolidine-2-yl)pyrimidine-4-yl)amino)-4-methoxy-2-((S)-2-methylmorpholino)phenyl)acrylamide]	A (GI50 < 50 nM)
C=CC(=O)Nc1cc(Nc2cc(N3OCC[C@@H]3c3ccc4ccccc4c3)ncn2)c(OC)cc1N1CCN(C)CC1 [compound 509, N-(4-methoxy-2-(4-methylpiperazine-1-yl)-5-((6-((R)-3-(naphthalene-2-yl)isoxazolidine-2-yl)pyrimidine-4-yl)amino)phenyl)acrylamide]	B (50 nM ≤ GI50 < 500 nM)
C=CC(=O)Nc1cc(Nc2cc(N3OCC[C@@H]3c3ccc(C)nc3)ncn2)c(OC)cc1N1C[C@@H]2C[C@H]1CO2 [Example 233, N-(2-((1S,4S)-2-oxa-5-azabicyclo[2.2.1]heptane-5-yl)-4-methoxy-5-((6-((R)-3-(6-methylpyridine-3-yl)isoxazolidine-2-yl)pyrimidine-4-yl)amino)phenyl) acrylamide]	C (500 nM ≤ GI50 < 5000 nM)
C=CC(=O)Nc1cc(Nc2cc(N3OCC[C@@H]3c3cc(F)cc(F)c3)ncn2)c(OC)cc1N1CCOCC1 [compound 823, N-(5-((6-((R)-3-(3,5-difluorophenyl)isoxazolidine-2-yl)pyrimidine-4-yl)amino)-4-methoxy-2-morpholinophenyl) acrylamide]	A (GI50 < 50 nM)
C=CC(=O)Nc1cc(Nc2cc(N3OCC[C@@H]3c3cccc(F)c3F)ncn2)c(OC)cc1N1CCN(C2CC2)CC1 [compound 333, N-(2-(4-cyclopropylpiperazine-1-yl)-5-((6-((R)-3-(2,3-difluorophenyl)isoxazolidine-2-yl)pyrimidine-4-yl)amino)-4-methoxyphenyl) acrylamide]	A (GI50 < 50 nM)
C=CC(=O)Nc1cc(Nc2cc(N3OCC[C@@H]3c3cccc(C#N)c3)ncn2)c(OC)cc1N1CCC(N2CCN(C(C)=O)CC2)CC1 [compound 434, N-(2-(4-(4-acetylpiperazine-1-yl)piperidine-1-yl)-5-((6-((R)-3-(3-cyanophenyl)isoxazolidine-2-yl)pyrimidine-4-yl)amino)-4-methoxyphenyl) acrylamide]	A (GI50 < 50 nM)
C=CC(=O)Nc1cc(Nc2cc(N3OCC[C@@H]3c3cccc(F)c3)ncn2)c(OC)cc1N(C)CCOC [compound 838, N-(5-((6-((R)-3-(3-fluorophenyl)isoxazolidine-2-yl)pyrimidine-4-yl)amino)-4-methoxy-2-((2-methoxyethyl)(methyl)amino)phenyl) acrylamide]	A (GI50 < 50 nM)
C=CC(=O)Nc1cc(Nc2cc(N3OCC[C@@H]3c3cccc(Cl)c3)ncn2)c(OC)cc1N1CCN(C2CC2)CC1 [compound 463, N-(5-((6-((R)-3-(3-chlorophenyl)isoxazolidine-2-yl)pyrimidine-4-yl)amino)-2-(4-cyclopropylpiperazine-1-yl)-4-methoxyphenyl) acrylamide]	B (50 nM ≤ GI50 < 500 nM)
C=CC(=O)Nc1cc(Nc2cc(N3OCC[C@@H]3c3cccc(Cl)c3F)ncn2)c(OC)cc1N1CCC(N2CCN(C3CCCC3)CC2)CC1 [Example 101, N-(5-((6-((R)-3-(3-chloro-2-fluorophenyl)isoxazolidine-2-yl)pyrimidine-4-yl)amino)-2-(4-(4-cyclopentylpiperazine-1-yl)piperidine-1-yl)-4-methoxyphenyl) acrylamide]	A (GI50 < 50 nM)

Reference: patent US12157730B2, “Heteroaryl derivative, method for producing same, and pharmaceutical composition comprising same as effective component” (VORONOI INC., priority 2019, dated 2024)
